Patent US20170119640A1, “Methods of Improving Glucose Tolerance, Hair Regrowth, and Bio-Availability” (priority 2015, published 2017)

What was measured:
[1] = system: female Albino Wistar rats; experiment: glucose tolerance test; type: in vivo, rat; conditions: six month old female Albino Wistar rats; 25, 50, 75 mg/kg body wt daily for four months; 6 h fast, 2 g/kg intraperitoneally, blood at 0-120 min; p<0.01 ResArgin, p<0.05 resveratrol
Experimental: (§1) To determine the efficacy of resveratrol-arginine conjugate, six month old female Albino Wistar rats were divided into seven groups (six rats per group) and given the following daily treatment for four months:
(§2) Group 2: 25 mg ResArgin/kg body wt; Group 3: 50 mg ResArgin/kg body wt; Group 4: 75 mg ResArgin/kg body wt; Group 5: 25 mg Resveratrol/kg body wt; Group 6: 50 mg Resveratrol/kg body wt;
Group 7: 75 mg Resveratrol/kg body wt. In one embodiment, glucose tolerance levels were tested via a glucose tolerance test and analysis was performed. Compared to the Control group, glucose tolerance was improved in the ResArgin and resveratrol groups (p<0.01 and p<0.05 respectively) over the experimental period.
In one embodiment, glucose tolerance tests were performed after having the rats fast for 6 hours and injecting 2 g/kg body weight intraperitoneally. Blood was then collected from the tail vein at 0, 15, 30, 60 and 120 minutes after injection.

[2] = system: female Albino Wistar rats; experiment: hair regrowth assay; type: in vivo, rat; conditions: six month old female Albino Wistar rats; 25, 50, 75 mg/kg body wt daily for four months; dorsal hair plucked from 1.5 cm×1.5 cm, scored two weeks later from digital photographs
Experimental: as §1, §2
In another embodiment, hair regrowth assay was done and quantified. Compared to the Control group, hair regrowth was improved in the ResArgin and resveratrol groups over the experimental period.
In the hair regrowth assay, dorsal hair was removed by plucking from a square of approximately 1.5 cm×1.5 cm. Hair growth and re-growth was scored two weeks later on the basis of digital photographs.

SMILES: Oc1ccc(C=Cc2cc(O)cc(O)c2)cc1 [resveratrol]
- glucose tolerance compared to the Control group [1]: improved
- hair regrowth compared to the Control group [2]: improved
